In ChEMBL document CHEMBL1136378, “Novel 6,7-diphenyl-2,3,8,8a-tetrahydro-1H-indolizin-5-one analogues as cytotoxic agents” (Bioorg Med Chem Lett, 2003) one finds GI50 data, which are given here for 18 compounds.

One assay relates to U-251. The experiment in a line: In vitro cytotoxic activity tested against human CNS (U251) cell line. The assay is classed as functional.
For the next assay, the system named is SW-620. The assay can be described thus: In vitro cytotoxic activity tested against human colon cancer (SW620) cell line. Type of assay: functional.
The test system of another assay is M14. The experiment in a line: In vitro cytotoxic activity was tested against human melanoma cancer (M14) cell line. Type of assay: functional.
Another assay concerns SK-OV-3. The experiment in a line: In vitro cytotoxic activity tested against human ovarian cancer (SK-OV3) cell line. Type of assay: functional.
Another assay deals with DU-145. The assay can be described thus: In vitro cytotoxic activity tested against human prostate cancer (DU145) cell line. Type of assay: functional.
The next assay deals with A498. The experiment in a line: In vitro cytotoxic activity was tested against human renal cancer (A498) cell line. Type of assay: functional.
Assay [1] in a line: Average growth inhibition against cell lines was calculated. Type of assay: functional.
A further assay concerns NCI-H522. The assay can be described thus: In vitro cytotoxic activity tested against human lung cancer (H-522) cell line.
The subject of another assay is NCI/ADR-RES. The experiment in a line: In vitro cytotoxic activity tested against human breast cancer MCF/ADR cell line.

As for `CSc1ccc(C2=C(c3ccc(C)c(C)c3)C(=O)N3CCCC3C2)cc1` (stereo not drawn), the GI50 with U-251 is 10 µM; with SW-620 it was 0.7 µM; in the assay on M14, 0.8 µM; in the assay on SK-OV-3, 0.3 µM; in the assay with DU-145 it was 0.5 µM; with A498, 0.3 µM. Further, the GI50 is 1.7 µM in assay [1], 0.3 µM with NCI-H522 and 0.8 µM in the assay with NCI/ADR-RES.

Regarding `COc1ccc(C2=C(c3ccc(SC)cc3)CC3CCCN3C2=O)cc1` (stereo not drawn), the GI50 with U-251 worked out at 2 µM; in the assay on SW-620, 3 µM; in the assay with M14, 4 µM; with SK-OV-3, 3 µM; in the assay on DU-145, 0.9 µM; in the assay with A498, 0.8 µM. Also, the figures for the GI50 (in [1]; in the assay with NCI-H522; with NCI/ADR-RES) were 2.4 µM, 0.8 µM and 5 µM, respectively.

Turning to `COc1ccc(C2=C(c3ccc(SC)cc3)CC3CCCN3C2=O)cc1OC(=O)CNC(=O)OC(C)(C)C` (stereo not drawn), the GI50 in the assay with U-251 was 6 µM; with SW-620 it was 20 µM; with SK-OV-3 it was 20 µM; in the assay with DU-145, 10 µM; in [1], 11.5 µM; in the assay on NCI-H522 it was 7 µM. The compound further returned a GI50 with NCI/ADR-RES of 6 µM.

In the case of `COc1ccc(C2=C(c3ccc(SC)cc3)CC3CCCN3C2=O)cc1Br` (stereo not drawn), the GI50 with U-251 is 0.8 µM; in the assay on SW-620, 5 µM; with M14, 3 µM; in the assay with SK-OV-3, 3 µM; with DU-145, 0.9 µM; with A498, 0.6 µM. In addition, the 50% growth inhibitory concentration (GI50) in [1] was 2.5 µM; in the assay with NCI-H522, 0.7 µM; in the assay with NCI/ADR-RES it was 6 µM.

For `COc1ccc(C2=C(c3ccc(SC)cc3)CC3CCCN3C2=O)cc1OC(=O)C1CCCN1C(=O)OC(C)(C)C` (stereo not drawn), the 50% growth inhibitory concentration (GI50) was 2 µM in the assay with U-251; 10 µM in the assay with SW-620; 10 µM with SK-OV-3; 5 µM in the assay on DU-145; 6 µM in assay [1]; 5 µM with NCI-H522. The compound also returned a GI50 with NCI/ADR-RES of 4 µM.

With `COc1ccc(C2=C(c3ccc(SC)cc3)CC3CCCN3C2=O)cc1C` (stereo not drawn), the GI50 in the assay on U-251 was found to be 0.09 µM; in the assay with SW-620 it was 0.5 µM; with M14 it was 0.2 µM; in the assay on SK-OV-3, 15 µM; in the assay on DU-145, 0.9 µM; in the assay with A498 it was 0.4 µM. The GI50 in assay [1] is 2.1 µM; in the assay with NCI-H522 it was 0.1 µM; in the assay with NCI/ADR-RES it was 0.4 µM.

Turning to `COc1ccc(/C=C\c2cc(OC)c(OC)c(OC)c2)cc1O` [COMBRETASTATIN A4], the GI50 with U-251 is 0.006 µM; in the assay on SW-620, 0.005 µM; in the assay with M14 it was 0.0001 µM; in the assay on SK-OV-3 it was less than 0.0001 µM; in the assay with A498, 0.61 µM; in [1], 0.103 µM. The GI50 in the assay on NCI-H522 is 0.007 µM; with NCI/ADR-RES it was 0.09 µM.

On to `COc1ccc(C2=C(c3cc(OC)c(OC)c(OC)c3)CC3CCCN3C2=O)cc1O` (stereo not drawn), for which the GI50 with U-251, in the assay on SW-620, with M14, in the assay with SK-OV-3, with DU-145 and with A498 was greater than 100 µM in each case. Moreover, the GI50 (in assay [1]; in the assay on NCI-H522; in the assay on NCI/ADR-RES) was greater than 100 µM each time.

Regarding `CSc1ccc(C2=C(c3ccc(OCC4CO4)cc3)C(=O)N3CCCC3C2)cc1` (stereo not drawn), the GI50 was determined as 0.08 µM with U-251; 0.09 µM with SW-620; 0.09 µM in the assay on M14; 10 µM in the assay on SK-OV-3; 0.5 µM in the assay with DU-145; 0.5 µM in the assay on A498. For the same compound, the GI50 in assay [1] was 2.6 µM; with NCI-H522 it was 0.03 µM; with NCI/ADR-RES it was 10 µM.

For `CSc1ccc(C2=C(c3ccc(OCCN4CCOCC4)cc3)C(=O)N3CCCC3C2)cc1` (stereo not drawn), the GI50 in the assay on U-251 came to 9 µM; in the assay on SW-620, 9 µM; with M14 it was 20 µM; in the assay with SK-OV-3, 9 µM; in the assay on DU-145, 20 µM; in the assay on A498, 9 µM. In addition, the results for the GI50 (in assay [1]; in the assay with NCI-H522; in the assay on NCI/ADR-RES) were 11.5 µM, 7 µM and 9 µM, respectively.

For the compound `COc1ccc(C2=C(c3ccc(SC)cc3)CC3CCCN3C2=O)cc1O` (stereo not drawn), the GI50 with U-251 is 5 µM; with SW-620 it was 20 µM; in the assay on SK-OV-3 it was greater than 100 µM; with DU-145 it was 6 µM; in assay [1], 23.6 µM; with NCI-H522, 6 µM. Further, halving of growth with NCI/ADR-RES (GI50) required 5 µM.

Turning to `COc1ccc(C2=C(c3ccc(SC)cc3)CC3CCCN3C2)cc1O` (stereo not drawn), the GI50 in the assay on U-251, with SW-620, in the assay with M14, with SK-OV-3, in the assay with DU-145 and in the assay on A498 was greater than 100 µM in each case. Further, the GI50 (in assay [1]; in the assay with NCI-H522; in the assay on NCI/ADR-RES) was greater than 100 µM in each case.

Consider `CSc1ccc(C2=C(c3ccc(Br)cc3)C(=O)N3CCCC3C2)cc1` (stereo not drawn), for which the GI50 was determined as 7 µM in the assay with U-251; 7 µM with SW-620; 9 µM with M14; 9 µM with SK-OV-3; 9 µM in the assay on DU-145; 7 µM in the assay with A498. Moreover, the GI50 is 7.8 µM in [1], 7 µM with NCI-H522 and 8 µM with NCI/ADR-RES.

Take `CSc1ccc(C2=C(c3ccc(F)c(C)c3)C(=O)N3CCCC3C2)cc1` (stereo not drawn): the GI50 was found to be 0.2 µM with U-251; 0.6 µM in the assay with SW-620; 0.8 µM in the assay on M14; 0.3 µM in the assay on SK-OV-3; 0.5 µM with DU-145; 0.3 µM with A498. The GI50 in [1] is 1.1 µM; in the assay with NCI-H522 it was 0.5 µM; in the assay on NCI/ADR-RES, 0.5 µM.

For the compound `COc1cc(C2=C(c3ccc(SC)cc3)CC3CCCN3C2=O)ccc1O` (stereo not drawn), the GI50 with U-251 came to 8 µM; in the assay on SW-620, 9 µM; in the assay with M14, 9 µM; in the assay with SK-OV-3, 8 µM; in the assay on DU-145, 8 µM; with A498, 5 µM. Moreover, the GI50 in [1] was 7.75 µM; in the assay with NCI-H522 it was 7 µM; in the assay with NCI/ADR-RES, 8 µM.

In the case of `COc1ccc(C2=C(c3ccc(OC)c(OC)c3)C(=O)N3CCCC3C2)cc1OC` (stereo not drawn), the GI50 in the assay with U-251, with SW-620, in the assay with M14, in the assay with SK-OV-3, in the assay on DU-145 and in the assay with A498 was greater than 100 µM throughout. In addition, the GI50 (in assay [1]; with NCI-H522; in the assay on NCI/ADR-RES) was greater than 100 µM throughout.

Consider `CSc1ccc(C2=C(c3ccc(O)c(O)c3)C(=O)N3CCCC3C2)cc1` (stereo not drawn), for which the GI50 with U-251 is 30 µM; in the assay with SW-620, 50 µM; in the assay with SK-OV-3 it was 80 µM; in the assay on DU-145, 60 µM; in assay [1], 60 µM; in the assay on NCI-H522, 60 µM. In addition, the GI50 in the assay on NCI/ADR-RES was found to be 80 µM.

As for `COc1ccc(C2=C(c3ccc(OC)c(OC)c3)CN3CCCC3C2)cc1OC` (stereo not drawn), the GI50 with U-251, with SW-620, in the assay with M14, in the assay with SK-OV-3, in the assay on DU-145 and with A498 was greater than 100 µM each time. Further, the GI50 (in assay [1]; in the assay on NCI-H522; in the assay with NCI/ADR-RES) was greater than 100 µM each time.
